From PubChem BioAssay (NCI)
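All cell lines were grown in 96-well plates and treated with compound for 48 hours. Definition used: TGI = concentration required for complete inhibition of growth.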

Experiments:
Assay in all cases: growth of human tumour cells (NCI), 48 h
[1] = test system: SW-620 colon
[2] = test system: MALME-3M melanoma
[3] = test system: RPMI-8226 leukemia
[4] = test system: EKVX NSCLC
[5] = test system: MOLT-4 leukemia
[6] = test system: SNB-19 CNS
[7] = test system: HS 578T breast
[8] = test system: NCI-H522 lung
[9] = test system: TK-10 renal
[10] = test system: HCT-15 colon
[11] = test system: OVCAR-4 ovarian
[12] = test system: HL-60(TB) leukemia
[13] = test system: OVCAR-8 ovarian
[14] = test system: NCI-H23 lung
[15] = test system: SF-539 CNS
[16] = test system: SK-MEL-28 melanoma
[17] = test system: MCF7 breast
[18] = test system: T-47D breast
[19] = test system: OVCAR-5 ovarian
[20] = test system: MDA-N

SMILES	TGI [1] [µM]	TGI [2] [µM]	TGI [3] [µM]	TGI [4] [µM]	TGI [5] [µM]	TGI [6] [µM]	TGI [7] [µM]	TGI [8] [µM]	TGI [9] [µM]	TGI [10] [µM]	TGI [11] [µM]	TGI [12] [µM]	TGI [13] [µM]	TGI [14] [µM]	TGI [15] [µM]	TGI [16] [µM]	TGI [17] [µM]	TGI [18] [µM]	TGI [19] [µM]	TGI [20] [µM]
COc1cc2cc(C(=O)N3CC(CCl)c4ccc([N+](=O)[O-])cc43)[nH]c2c(OC)c1OC (stereo not given)	> 100	> 100	> 100	67.2	> 100	> 100	> 100	> 100	> 100	> 100	> 100	> 100	> 100	> 100	> 100	> 100	> 100	> 100	> 100	–
CC(=O)Nc1ccc(-c2nnc(SCC(=O)Nc3cccc(Cl)c3)o2)cc1	28	26.8	> 100	45	51.8	39.4	–	23.5	33.9	> 100	42.3	60.4	> 100	23	34.8	33.8	–	–	40.3	–
CCOc1cn(C2OC(CO)C(O)C2O)c(=O)[nH]c1=O (stereo not given)	89.5	> 100	> 100	> 100	> 100	> 100	–	> 100	> 100	> 100	–	> 100	> 100	> 100	–	> 100	–	–	> 100	–
C=CCC1(Sc2ccccn2)Sc2ccc3ccccc3c2-c2c(ccc3ccccc23)S1	> 100	> 100	–	> 100	> 100	> 100	> 100	> 100	> 100	> 100	> 100	> 100	> 100	> 100	> 100	> 100	> 100	> 100	> 100	–
CC(=O)c1cc2c(s1)C(=O)c1sccc1C2=O	0.28	0.0313	0.191	0.475	0.292	0.202	0.198	0.0521	0.414	0.0534	0.195	–	0.227	0.0378	0.0348	–	36.8	0.7	0.158	–
COc1ccc(C(=O)c2c3cc(OC)c(OC)c(OC)c3cc[n+]2C)cc1	> 100	> 100	49	> 100	> 100	> 100	–	62.4	> 100	–	–	–	> 100	66.5	–	> 100	–	–	> 100	–
COc1cc(CC2c3cc(OC)c(OC)cc3CCN2C)ccc1O (stereo not given)	> 100	> 100	> 100	> 100	> 100	> 100	–	> 100	> 100	> 100	> 100	–	> 100	> 100	> 100	> 100	–	–	> 100	–
Cc1ccc(Cc2nn(C)c(=O)n2N)cc1	> 100	–	> 100	> 100	–	> 100	–	–	> 100	> 100	> 100	–	> 100	> 100	> 100	> 100	> 100	> 100	> 100	> 100
C=C(C)[C@@H]1CCC2=C[C@H](C/C(C)=C\C3=CC(C)=C(O3)[C@H]1O)OC2=O	> 100	> 100	> 100	> 100	> 100	> 100	> 100	> 100	> 100	> 100	> 100	> 100	> 100	–	> 100	> 100	> 100	> 100	> 100	–
CC(=O)NC(Cc1ccccc1)NC(=O)O (stereo not given)	> 100	> 100	> 100	> 100	> 100	> 100	–	> 100	> 100	> 100	> 100	> 100	> 100	> 100	> 100	> 100	> 100	> 100	> 100	> 100
COc1cccc(/C=C/C(=O)c2sc(C(N)=S)nc2C)c1O	86.3	> 100	> 83.3	> 100	> 82.8	> 100	–	> 74	> 100	> 76.5	> 100	> 100	> 100	> 100	97	> 100	–	–	> 100	–
O=C(NCCC1CN(C(=O)OCc2ccccc2)c2ccccc21)OCc1ccccc1 (stereo not given)	> 100	> 100	> 100	> 100	> 100	> 100	> 100	> 100	> 100	> 100	> 100	–	> 100	> 100	–	> 100	> 100	–	> 100	> 100
CC(c1ccc2c(c1)CCC1C2CC2OC23CC=CC(=O)[C@]13C)C1C[C@]2(C)O[C@]2(C)[C@H](O)O1 (stereo not given in full)	> 100	> 100	> 100	> 100	> 100	> 100	–	> 100	> 100	> 100	–	71.9	> 100	25.2	> 100	> 100	–	–	> 100	–
CCOC(=O)C1=C(C)NC2=C(C(=O)N(c3ccccc3)C2c2ccccc2)C1c1ccccc1 (stereo not given)	47.5	33.7	53.4	44.2	56.2	–	–	25.9	45.2	32.2	–	81.2	53.4	33.7	33.1	34.8	–	–	29.8	–
